From article PMC4311242 (2015)

Legend:
[1] = system: kanamycin-binding DNA aptamer (DNA, aptamer) TGGGGGTTGAGGCTAAGCCGA; assay: TO fluorescent intercalator displacement; conditions: 10 mM NaCl, 10 mM Tris-HCl pH 7.2, 25 °C
[2] = system: kanamycin-binding DNA aptamer (DNA, aptamer) TGGGGGTTGAGGCTAAGCCGA; assay: fluorescence enhancement; conditions: 10 mM NaCl; 10 mM Tris-HCl pH 7.2, 25 °C; excitation 501 nm, emission 530 nm
[3] = system: Mut1 (DNA, aptamer) TGGGGGTTGAAACTAAGCCGA; assay: fluorescence enhancement; conditions: 10 mM NaCl; 10 mM Tris-HCl pH 7.2, 25 °C; excitation 501 nm, emission 530 nm
[4] = system: Mut2 (DNA, aptamer) TGGAAATTGAGGCTAAGCCGA; assay: TO fluorescent intercalator displacement; conditions: 10 mM NaCl; 10 mM Tris-HCl pH 7.2, 25 °C; TO displaced; affinity comparable to parent aptamer
[5] = TO tracer 3.5:1 to DNA, tested at 20 µM

binding [1, 5] | SMILES | further results
no | CN(C)[C@@H]1C(=O)C(C(N)=O)=C(O)[C@@]2(O)C(=O)C3=C(O)c4c(O)cccc4[C@@](C)(O)[C@H]3[C@H](O)[C@@H]12 | 
no | CN[C@@H]1[C@H](O[C@H]2[C@H](O[C@H]3[C@H](O)[C@@H](O)[C@H](N=C(N)N)[C@@H](O)[C@@H]3N=C(N)N)O[C@@H](C)[C@]2(O)C=O)O[C@@H](CO)[C@H](O)[C@H]1O | 
no | O=C(N[C@H](CO)[C@H](O)c1ccc([N+](=O)[O-])cc1)C(Cl)Cl | 
 | CN1C(=Cc2cc[n+](C)c3ccccc23)Sc2ccccc21 | binding [2]: yes; binding [3]: weak
no | CC1(C)S[C@@H]2[C@H](NC(=O)[C@H](N)c3ccccc3)C(=O)N2[C@H]1C(=O)O | 
no | CN(C)[C@@H]1C(O)=C(C(N)=O)C(=O)[C@@]2(O)C(O)=C3C(=O)c4c(O)ccc(Cl)c4[C@@](C)(O)[C@H]3C[C@@H]12 | 
no | COc1cc(NS(=O)(=O)c2ccc(N)cc2)nc(OC)n1 | 
 | NC[C@H]1O[C@H](O[C@H]2[C@H](O)[C@@H](O[C@H]3O[C@H](CO)[C@@H](O)[C@H](N)[C@H]3O)[C@H](N)C[C@@H]2N)[C@H](O)[C@@H](O)[C@@H]1O | binding ([1]; TO displaced, kanamycin 0.1-100 µM): yes; binding [4]: yes
